Reference: patent US7265116B2, “Aryl and heteroaryl substituted tetrahydroisoquinolines and use thereof” (ARM Technology, Inc., priority 1999, dated 2007)

Key:
[1] = test system: dopamine transporter protein over the norepinephrine transporter protein; details: selectivity for dopamine transporter over norepinephrine transporter; cited from earlier work
[2] = cited from earlier work

CN1Cc2cc(-c3ccoc3)ccc2C(c2ccccc2)C1 (stereo not drawn)
melting point: 188 to 189 °C (dec.)

COC(=O)C(c1ccccc1)C1CCCCN1 (stereo not drawn) [Methylphenidate]
DAT/NET Ki ratio [1]: 0.1

CN1Cc2c(N)cccc2C(c2ccccc2)C1 (stereo not drawn) [Nomofensine]
side effect of long term administration [2]: fatal immune hemolytic anemia
